Experiments:
[1] = test system: Salmonella typhimurium TA98, TA100 and Escherichia coli WP2 uvrA; assay: Bacterial Reverse Mutation Assay, overall; conditions: with or without rat liver S9, up to 1000 per plate
Method: using the preincubation method (30 min, 37°C) with and without phenobarbital-5,6-benzoflavone induced
MG3 was dissolved in distilled water (H2O) at
the maximum concentration of 40 mg/mL and tested in a preliminary range-finding test in all strains of
metabolic activation to determine the toxicity of the compound.

[2] = Blood to plasma partitioning; type: in vitro ADME; conditions: male, whole blood, human blood, up to 30 min
Method: Plasma protein binding was performed via ultrafiltration (30,000 D cutoff, Amicon, Merck) with heparinized blood samples (male SD rats, Charles River Italy, and male Beagle dogs, Marshall Farms, Europe, Lyon, France) and fresh and frozen heparinized human blood samples collected from fasted healthy male subjects (at least two subjects for plasma samples), were supplied by AAI, Germany. MG3 final concentrations of 100, 300 and 1000 ng/mL were prepared using a 10 mg/mL stock solution while control samples at the same concentrations diluted in DPBS buffer (Dulbecco’s Phosphate Buffered Saline, Sigma-Aldrich) to evaluate the recovery. […] The percentage of bound drug (% Fbound) and of unbound drug (% Ffree) was determined using the following equations: % Fbound = [(Conc. Total–Conc. Free)/Conc. […] Total is the compound concentration determined in plasma and Conc. Free is the compound concentration determined in the ultrafiltrated samples. Results were expressed as % of binding and % of free fraction (single values and mean ± SD). […] Blood to plasma ratio was calculated as: Conc. in blood/Conc. in plasma; where, Conc. is the compound concentration determined in blood and in plasma at the same time of incubation.

rat hepatocytes = assay: Metabolic profiling in hepatocytes; type: in vitro ADME; conditions: rat hepatocytes, MG3 10 µM, 1 h incubation, semi-quantitative
Method: (§1) For metabolite profiling, MG3.2HCl (10 µM) was incubated with mouse, rat, dog, monkey, and human hepatocytes (300,000 cells/mL for the mouse and 1 × 10^6 cells/mL for the other species) in Leibovitz L-15 medium, at 37 °C. Incubations were performed in a 12-well plate under shaking. Aliquots of the incubation samples, together with a control in medium alone, were taken at t = 0 and 60 min; the metabolism was stopped by the addition of an equal volume of chilled ACN and the samples were centrifuged at 1100 rpm for 20 min. The supernatant was stored at −20 °C until analysis. The analyses were performed using an HPLC system (Agilent) online with a photodiode array (PDA) detector (Agilent) coupled to a Mass Spectrometer Q-TOF 2 (Waters), ESI positive, following the method reported in Table 1.
(§2) The software utilized for searching the accurate masses of possible metabolites was Metabolynx, version 4.1 (Waters Corporation, Milford, MA, USA), with a mass window of 40 mDa. Samples were then re-run in MS/MS mode by selecting the masses of possible metabolites found. The collision energy used to obtain MS/MS data was 25 eV. The proposed identity of metabolites was based on their accurate mass (using LockSpray correction), with an accuracy of +/−5 mDa. MS/MS analyses were performed to verify that peaks were drug-related and to obtain structural information from the fragment ions formed. The structures of some metabolites are proposed. The approximate relative amounts of parent and metabolites were determined from the absolute areas taken from a selected ion chromatogram at the metabolite masses with a mass window of 0.04 Da.

human hepatocytes = assay: Metabolic profiling in hepatocytes; type: in vitro ADME; conditions: human hepatocytes, MG3 10 µM, 1 h incubation, semi-quantitative
Method: as §1, §2

Clc1ccc2c(NCC34CCCN3CCC4)ccnc2c1 [MG3, 7-Chloro-N-((hexahydro-1H-pyrrolizin-7a-yl)methyl)quinolin-4-amine]
mutagenicity judgement [1]: non-mutagenic | blood plasma ratio at 300 ng/mL [2]: ~1 | % of Total Drug Related Material (rat hepatocytes): 53% | % of Total Drug Related Material (human hepatocytes): 82%

From publication PMC10216263, “Favorable Preclinical Pharmacological Profile of a Novel Antimalarial Pyrrolizidinylmethyl Derivative of 4-amino-7-chloroquinoline with Potent In Vitro and In Vivo Activities” (Biomolecules, 2023)
